Test [1] concerns spontaneously hypertensive rats of the Okamoto strain. Nature of the test: Hypotensive activity in spontaneously hypertensive rats (method of Chan and Poorvin). The test is classed as in vivo. The settings on record: by gavage, 100 mg/kg or less, second identical dose 24 hours later, MABP measured 28 hours after initial dose, average MABP of the rats used 160±1.5 mm of mercury. The procedure:
The novel compounds of the present invention are active hypotensive agents and were tested for hypotensive activity by the method of P.S. Chan and D. Poorvin, Clinical and Experimental Hypertension, 1 (6), 817-830 (1979). Male, 16 week old, spontaneously hypertensive rats of the Okamoto strain, from Taconic Farms, Germantown, New York, having an average mean arterial blood pressure of 160±1.5 mm of mercury, were used in the test. One to four rats were used per test compound. A rat is dosed by gavage with a test compound suspended in 2% pre-boiled starch at a concentration of 50 mg/ml, at a dose of 100 mg/kg of body weight or less, with 0.9% sodium chloride loading at a dose of 25 ml/kg of body weight. A second identical dose of the test compound, without sodium chloride loading is given 24 hours later. At 28 hours after the initial dose the mean arterial blood pressure (MABP) is measured. The procedure is repeated in a second and third rat when necessary. The results of this test on representative compounds of the present invention appear below in Table II.

For test [2], the target named is T1, thromboxane synthetase enzyme (Rattus norvegicus, UniProt P49430).
T1 construct: from tissue; host or cells: washed blood platelets from Okamoto-Aoki spontaneously hypertensive rats (SHR)
T1 sequence (P49430 1-533): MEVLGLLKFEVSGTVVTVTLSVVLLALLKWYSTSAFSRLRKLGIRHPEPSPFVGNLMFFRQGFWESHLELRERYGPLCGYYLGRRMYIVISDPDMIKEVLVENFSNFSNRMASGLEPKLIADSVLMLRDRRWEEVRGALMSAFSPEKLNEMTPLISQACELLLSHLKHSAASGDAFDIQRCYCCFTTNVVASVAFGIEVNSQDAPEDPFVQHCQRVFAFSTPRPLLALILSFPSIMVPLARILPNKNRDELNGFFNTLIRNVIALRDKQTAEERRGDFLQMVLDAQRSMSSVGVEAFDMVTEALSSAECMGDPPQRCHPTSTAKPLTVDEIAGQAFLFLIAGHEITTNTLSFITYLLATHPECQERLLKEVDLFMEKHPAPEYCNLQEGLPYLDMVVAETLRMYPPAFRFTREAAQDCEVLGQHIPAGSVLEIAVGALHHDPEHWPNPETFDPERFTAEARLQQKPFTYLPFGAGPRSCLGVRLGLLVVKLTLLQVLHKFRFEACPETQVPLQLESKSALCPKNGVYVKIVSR
Put plainly: Inhibition of thromboxane (TXB2) formation in washed rat platelets, TXB2 radioimmunoassay. The test is classed as biochemical, Okamoto-Aoki spontaneously hypertensive rats (SHR). The note with it: Concentration 1x10^-4M, platelet suspension incubated 10 minutes at 37 °C. The method, then:
Under urethan anesthesia, […] of arterial blood from Okamoto-Aoki spontaneously hypertensive rats (SHR) (Taconic Farms, Germantown, NY) between 19 and 24 weeks in age is collected in one ml of 3.2% sodium citrate in a polystyrene tube. The blood is diluted with 3 ml of cold saline and centrifuged at room temperature for 15 minutes at 460xg. The platelet rich plasma (PRP) is separated. The platelets are isolated by centrifuging the PRP for 10 minutes at 1060xg and are washed in 4 ml of cold oxygenated Krebs phosphate buffer, pH 7.4. The chilled platelets, recovered from centrifuging at 800xg for 10 minutes, are resuspended in oxygenated Krebs phosphate buffer and diluted to contain 4.5-6.0 x 10⁴ platelets/µ1. The inhibition of thromboxane (TX) formation is studied by determining the concentration of thromboxane B₂ (TXB₂), the stable hydrolysis product of TXA₂. Assay samples, prepared on ice, contain 200 µ1 platelet suspension, 50 µ1 saline, and 50 µ1 vehicle (saline) or drug under study. The samples are incubated for 10 minutes at 37 °C in a metabolic shaker. The reaction is terminated by immersing the tubes in an ice bath and adding 50 µl of 0.5M citric acid. The samples are centrifuged for 10 minutes in a refrigerated centrifuge and the supernatants thus obtained are decanted and stored at -20 °C. The TXB₂ content for each sample is determined by a direct radioimmunoassay (RIA) utilizing a TXB₂ specific RIA kit purchased from New England Nuclear, Boston, MA and expressed as pg TXB₂ formed per minute per sample, from which the percent inhibition of TXB₂ formation is calculated.

The test system of test [3] is Male mice of the Swiss Webster Strain. Put plainly: Calcium chloride-induced arrhythmia in anesthetized mice (survival). In kind it is in vivo. The note with it: Mus musculus, iv, Dose = 10 mg/kg i.v.; calcium chloride 200 mg/kg i.v. bolus 5, 15 or 30 minutes after drug; observed 15 minutes; read-out: CaCl2 #Mice Surviving #Mice Tested (converted). The source says:
(§1) Intravenous administration of high doses of calcium or potassium chloride in animals produces cardiac arrhythmias, cardiac fibrillation and cardiac arrest. Any agent that can prevent these events is considered an antiarrhythmic/antifibrillatory agent. (Meth. and Find Exptl. Clin Pharmacol.2:223-252(1980); Pharmacol, Ther. 24:401-433 (1984); Experimental Cardiac and Antiarrhythmic Drugs, L. Szekeres and Gy. J. Dapp, Akademiai Kiado Preso, Budapest, 9-448 (1971).)
(§2) The method employed is as follows: Male mice of the Swiss Webster Strain (Charles River, Wilmington, MA) weighing 25-35 g are anesthetized with ethyl carbamate (urethan) (1.5g/kg body weight i.p.). A 25-gauge needle attached to PE-20 tubing is inserted into a caudal vein for drug administration. The lead II ECG is recorded by needle electrodes placed subcutaneously in the limbs. All data is collected on a Gould Brush recorder. Animals are observed 5 minutes before drug administration. A 5, 15, or 30 minute period following drug administration is allowed before the bolus injection of calcium chloride, 200 mg/kg i.v. or potassium chloride, 62.5 mg/kg i.v. Control mice receive 4 ml/kg of 0.9% sodium chloride i.v. Mice are observed an additional 15 minutes for arrhythmias, fibrillation, survival or death. Any compound at a dose of less than 20 mg/kg i.v. that protects 3 out of 6 mice from cardiac death in either the potassium or calcium chloride test, is considered active.

The test system is the same in test [4]. Nature of the test: Potassium chloride-induced arrhythmia in anesthetized mice (survival). In kind it is in vivo. The note with it: Mus musculus, iv, Dose = 10 mg/kg i.v.; potassium chloride 62.5 mg/kg i.v. bolus 5, 15 or 30 minutes after drug; observed 15 minutes; read-out: KCl #Mice Surviving #Mice Tested (converted).
Excerpt: as §1, §2

Where a name gives a salt, the structure may show the parent alone.

In the case of `O=[N+]([O-])c1ccc(NCCCn2ccnc2)nc1` [Example 1, N-[3-(1H-Imidazol-1-yl)propyl]-5-nitro-2-pyridinamine,(Z)-2-butenedioate (1:1)], the “Avg. MABP in mm Hg (No. of Rats)” value in test [1] (100 mg/kg) is on record as 121 (4) mm Hg.

Usually inhibition stands for the drop in the measured response relative to a control, in per cent. Regarding `O=[N+]([O-])c1cccnc1NCCCn1ccnc1` [Example 2, N-[3-(1H-Imidazol-1-yl)propyl]-3-nitro-2-pyridinamine], the inhibition at 100 µM in test [2] was determined as 80%. Also, the “Avg. MABP in mm Hg (No. of Rats)” value in test [1] is 98 (2) mm Hg. The responders at 10 mg/kg in test [3] was 50%; in test [4] it was 66.7%.

As to `Cc1ccc(C#N)c(NCCCn2ccnc2)n1` [Example 3, 2-[[3-(1H-Imidazol-1-yl)propyl]amino]-6-methyl-3-pyridinecarbonitrile], the inhibition at 100 µM in test [2] amounted to 79%. The “Avg. MABP in mm Hg (No. of Rats)” value in test [1] is reported as 80 (2) mm Hg.

With `Cc1cc(NCCCn2ccnc2)nc2ccccc12` [Example 6, N-[3-(1H-Imidazol-1-yl)propyl]-4-methyl-2-quinolinamine], the inhibition at 100 µM in test [2] came to 98%. For the same molecule, in test [1], the “Avg. MABP in mm Hg (No. of Rats)” value is listed as 100 (3) mm Hg.

For `O=[N+]([O-])c1ccc(NCCCn2ccnc2)nc1` [Example 11, N-[3-(1H-imidazol-1-yl)propyl]-5-nitro-2-pyridinamine], the “Avg. MABP in mm Hg (No. of Rats)” value in test [1] (100 mg/kg) is given as 119 (2) mm Hg. Besides, the values for the responders at 10 mg/kg in test [3] and in test [4] were 0% and 50%, respectively.

For the molecule `c1ccc2c(NCCCn3ccnc3)nccc2c1` [Example 14, N-[3-(1H-Imidazol-1-yl)propyl]-1-isoquinolinamine], the inhibition at 100 µM in test [2] came to 84%. For the same molecule, the “Avg. MABP in mm Hg (No. of Rats)” value in test [1] is given as 121 (3) mm Hg.

In test [2], `COc1ccc2nc(NCCCn3ccnc3)cc(C)c2c1` [Example 21, N-[3-(1H-Imidazol-1-yl)propyl]-6-methoxy-4-methyl-2-quinolinamine] returned an inhibition at 100 µM of 97%. For the same molecule, the “Avg. MABP in mm Hg (No. of Rats)” value in test [1] is 110 (2) mm Hg.

In test [2], `Cc1ccc2ccc(NCCCn3ccnc3)nc2n1` [Example 38, N-[3-(1H-Imidazol-1-yl)propyl]-7-methyl-1,8-naphthyridin-2-amine,(E)-2-butenedioate (1:2)] registered an inhibition at 100 µM of 98%. In addition, the results for the responders at 10 mg/kg in test [3] and in test [4] were 33.3% and 66.7%, respectively.

With `Cc1nccc2nc(NCCCn3ccnc3)ccc12` [Example 40, N-[3-(1H-Imidazol-1-yl)propyl]-5-methyl-1,6-naphthyridin-2-amine,(E)-2-butenedioate (2:3)], in test [2], the inhibition at 100 µM worked out at 95%. The responders at 10 mg/kg is 33.3% in test [3] and 50% in test [4].

On to `c1cn(CCCNc2ccc3sccc3n2)cn1` [Example 62, N-[3-(1H-Imidazol-1-yl)propyl]thieno[3,2-b]-pyridin-5-amine], for which the inhibition at 100 µM in test [2] turned out to be 91%. The “Avg. MABP in mm Hg (No. of Rats)” value in test [1] was 105 (2) mm Hg.

On to `N#Cc1cc2ccccc2nc1NCCCn1ccnc1` [Example 82, 2-[[3-(1H-Imidazol-1-yl)propyl]amino]-3-quinolinecarbonitrile], for which the “Avg. MABP in mm Hg (No. of Rats)” value in test [1] is recorded as 94 (2) mm Hg.

`Cc1cc(NCCC(C)n2ccnc2)nc2ccccc12` (stereo not shown) [Example 87, N-[3-(1H-Imidazol-1-yl)butyl]-4-methyl-2-quinolinamine]: the “Avg. MABP in mm Hg (No. of Rats)” value in test [1] is given as 111 (2) mm Hg.

In the case of `Cc1ccc(C#N)c(NCCCCCn2ccnc2)n1` [Example 90, 2-[[5-(1H-Imidazol-1-yl)pentyl]amino]-6-methyl-3-pyridinecarbonitrile], the “Avg. MABP in mm Hg (No. of Rats)” value in test [1] is reported as 116 (2) mm Hg. In addition, the responders at 10 mg/kg was 0% in test [3] and 50% in test [4].

Turning to `Cc1cc(NCCCc2cccnc2)nc2ccccc12.Cl.Cl` [Example 98, 4-Methyl-N-[3-(3-pyridinyl)propyl]-2-quinolinamine, dihydrochloride], the “Avg. MABP in mm Hg (No. of Rats)” value in test [1] is 95 (2) mm Hg. For the same molecule, the responders at 10 mg/kg in test [3] and in test [4] was 83.3% in each case.

As for `Cc1cc(NCCCCn2ccnc2)nc2ccccc12` [Example 101, N-[4-(1H-Imidazol-1-yl)butyl]-4-methyl-2-quinolinamine], the “Avg. MABP in mm Hg (No. of Rats)” value in test [1] is recorded as 96 (2) mm Hg.

`Cc1cc(NCCCCc2cccnc2)nc2ccccc12` [Example 103, 4-Methyl-N-4-(3-pyridinylbutyl)-2-quinolinamine, dihydrochloride]: the “Avg. MABP in mm Hg (No. of Rats)” value in test [1] is 87 (2) mm Hg.

On to `c1ccc2c(c1)nc(NCCCCn1ccnc1)c1ccccc12` [Example 104, N-[4-(1H-Imidazol-1-yl)butyl]-6-phenanthridinamine], for which, in test [1], the “Avg. MABP in mm Hg (No. of Rats)” value is 93 (1) mm Hg.

As for `c1cncc(CCCCNc2nccc3ccccc23)c1` [Example 105, N-[4-(3-Pyridinyl)butyl]-1-isoquinolinamine, dihydrochloride], at 100 µM the inhibition in test [2] was 97%. Also, the responders at 10 mg/kg in test [3] is 50%; in test [4] it was 66.7%.

In test [2], `COc1ccc2nc(NCCCCc3cccnc3)cc(C)c2c1` [Example 106, 6-Methoxy-4-methyl-N-[4-(3-pyridinyl)butyl]-2-quinolinamine] registered an inhibition at 100 µM of 97%. Besides, in test [1], the “Avg. MABP in mm Hg (No. of Rats)” value is given as 120 (2) mm Hg.

In test [2], `Cc1cc(NCCCCc2cccnc2)nc2c(C)cccc12` [Example 107, 4,8-Dimethyl-N-[4-(3-pyridinyl)butyl]-2-quinolinamine] gave an inhibition at 100 µM of 99%. Besides, the responders at 10 mg/kg in test [3] was 0%; in test [4], 83.3%.

In turn, `Cc1ccc(C#N)c(NCCCCc2cccnc2)n1` [Example 108, 6-Methyl-2-[[4-(3-pyridinyl)butyl]amino]-3-pyridinecarbonitrile] registered an inhibition at 100 µM in test [2] of 96%. Further, the figures for the responders at 10 mg/kg in test [3] and in test [4] were 66.7% and 83.3%, respectively.

The values are drawn from patent publication EP0446604A2, “Pyridine and related aza heterocycle derivatives as cardiovascular agents” (AMERICAN CYANAMID COMPANY, priority 1990, dated 1991).
